Target: human Arginine Vasopressin Receptor 1a (AVPR1a) (Homo sapiens (Human), UniProt P37288)
Assay: Vasopressin V1A receptor antagonist assay (AVP-evoked calcium, FLIPR, CHO-AVPR1a cells)
Type: cell-based
Settings: not given
Experimental: The purpose of this assay was to determine the inhibitory effect of synthesized compounds on the Vasopressin V1a receptor. The assay as performed in Chinese Hamster Ovary (CHO) cells expressing the human Arginine Vasopressin Receptor 1a (AVPR1a). Arginine Vasopressin (AVP) evokes an increase in intracellular calcium in CHO-AVPR1a cells which is measured in a fluorescence assay on the FLIPR^TETRA using calcium sensitive dyes. Test compounds were assessed for their ability to affect the magnitude of the response to AVP, with antagonists showing a concentration-dependent reduction in the AVP-mediated fluorescence. Compounds were tested in duplicate in a 10-point, 1:3 dilution series starting at a nominal concentration of 3 μM in the assay.
CHO-AVPR1a cells were maintained in routine culture in T175 Flasks at 37° C., 5% CO2. The growth medium consists of Ham's F12 media supplemented with 10% v/v fetal bovine serum, 1× non-essential amino acids, and 0.4 mg/ml Geneticin G418.
On day one, cells were harvested from T175 flasks when they are 80-90% confluent by first washing the cell monolayer with PBS and then dissociated using trypsin 0.05%/EDTA (3 mL for a T175 Flask). The flasks were incubated at room temperature until the cells detached. To the cell suspension, 10 ml of growth media was added and the cell density determined using the Vi-Cell automated cell counter. The cells were spun at 1000 rpm for 3 minutes, then the supernatant was carefully removed and discarded. The cell pellet was re-suspended at 6.0e^5 cells/ml in growth media. 25 μL of cells in growth media was dispensed into each well (15,000 cells per well) of a poly-D-lysine coated black, clear bottomed, 384-well plate. The plates were incubated at 37° C., 5% CO2 overnight.
At the start of each assay day, the potency of AVP was assessed and an EC80 concentration determined for subsequent compound profiling. Assays were performed using a two-step addition protocol on the FLIPR^TETRA; first addition of 5 μl of control or test compound at 10× final in assay buffer with 15 min incubation at 37° C., 5% CO2 followed by 10 μl of AVP at 6× final concentration in assay buffer. […] The assay buffer consisted of HBSS (+Ca/+Mg) supplemented with 20 mM HEPES, and for the preparation of the AVP agonist only, 0.1% w/v bovine serum albumin. The assay was initiated by the removal of growth media from the cells and replacement with 45 μl of Calcium-6 dye (Molecular Devices) prepared at 1× in assay buffer. Cells are loaded with dye for 60-90 min at 37° C., 5% CO2 before initiation of the FLIPR^TETRA protocol. […] At the end of the incubation period, 10 μl of AVP in assay buffer containing 0.1% BSA was added at the previously determined EC80 concentration.

Chain of human Arginine Vasopressin Receptor 1a (AVPR1a) (P37288 whole entry): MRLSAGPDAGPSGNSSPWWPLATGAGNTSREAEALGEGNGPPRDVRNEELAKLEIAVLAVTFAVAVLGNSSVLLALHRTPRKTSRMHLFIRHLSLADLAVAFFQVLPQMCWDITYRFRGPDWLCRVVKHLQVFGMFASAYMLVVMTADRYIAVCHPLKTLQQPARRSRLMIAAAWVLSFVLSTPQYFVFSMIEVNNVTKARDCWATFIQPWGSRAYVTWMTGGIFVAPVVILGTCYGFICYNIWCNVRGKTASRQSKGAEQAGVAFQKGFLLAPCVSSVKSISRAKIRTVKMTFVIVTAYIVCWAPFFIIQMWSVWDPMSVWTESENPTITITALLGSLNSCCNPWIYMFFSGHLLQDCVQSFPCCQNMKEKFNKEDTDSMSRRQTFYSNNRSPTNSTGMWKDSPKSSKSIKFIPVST

| Structure (SMILES) | IC50 [nM] |
| --- | --- |
| COC(=O)N1Cc2cc(Cl)ccc2-n2c(nnc2C2CC3(C2)CN(c2ccncn2)C3)C1 [compound 186] | 100 to 500 |
| O=C1OCC2c3nnc(C4CC5(C4)CN(c4ncccn4)C5)n3-c3ccc(Cl)cc3CN12 (stereo not shown) [compound 198] | 100 to 500 |
| CN1Cc2cc(Cl)ccc2-n2c(nnc2C2CC3(C2)CN(c2nn(C)c4ncccc24)C3)C1 [compound 231] | 100 to 500 |
| Cc1cnc(N2CC3(CC(c4nnc5n4-c4ccc(Cl)cc4CN(C4CC4)C5)C3)C2)nc1 [compound 234] | 100 to 500 |
| Cc1cnc(N2CC3(CC(c4nnc5n4-c4ccc(Cl)cc4CN(C)C5)C3)C2)nc1 [compound 239] | 100 to 500 |
| CN1Cc2cc(Cl)ccc2-n2c(nnc2C2CC3(C2)CN(c2ccncn2)C3)C1 [compound 243] | 100 to 500 |
| Cc1cncnc1N1CC2(CC(c3nnc4n3-c3ccc(Cl)cc3CN(C)C4)C2)C1 [compound 251] | 100 to 500 |
| Cc1cnc(N2CC3(CC(c4nnc5n4-c4ccc(Cl)cc4CN(C4(C)CC4)C5)C3)C2)nc1 [compound 253] | 100 to 500 |
| CC1(N2Cc3cc(Cl)ccc3-n3c(nnc3C3CC4(C3)CN(c3ccncn3)C4)C2)CC1 [compound 254] | 100 to 500 |
| CN1Cc2cc(Cl)ccc2-n2c(nnc2C2CC3(C2)CN(c2nccc4c2ncn4C)C3)C1 [compound 257] | 500 to 1000 |
| Cc1ccc(N2CC3(CC(c4nnc5n4-c4ccc(Cl)cc4CN(C4(C)CC4)C5)C3)C2)nc1 [compound 265] | 100 to 500 |

Same assay, conditions: read-out: V1a IC50

| Structure (SMILES) | IC50 [nM] |
| --- | --- |
| O=C(C1C[C@H]1F)N1Cc2cc(Cl)ccc2-n2c(nnc2C2CC3(C2)CN(c2ccc(F)cn2)C3)C1 (stereo partly shown) [compound 158] | < 100 |
| O=C(C1C[C@@H]1F)N1Cc2cc(Cl)ccc2-n2c(nnc2C2CC3(C2)CN(c2ccc(F)cn2)C3)C1 (stereo partly shown) [compound 159] | < 100 |
| CC1c2nnc(C3CC4(C3)CN(c3ccc(F)cn3)C4)n2-c2ccc(Cl)cc2CN1C(=O)C(C)(C)F (stereo not shown) [compound 178] | < 100 |
| CC1c2nnc(C3CC4(C3)CN(c3ccccn3)C4)n2-c2ccc(Cl)cc2CN1C(=O)C1(F)CC1 (stereo not shown) [compound 181] | < 100 |
| COC(=O)N1Cc2cc(Cl)ccc2-n2c(C3CC4(C3)CN(c3ccncn3)C4)nnc2C1C (stereo not shown) [compound 184, methyl 8-chloro-4-methyl-1-(2-(pyrimidin-4-yl)-2-azaspiro[3.3]heptan-6-yl)-4H-benzo[f][1,2,4]triazolo[4,3-a][1,4]diazepine-5(6H)-carboxylate] | 100 to 500 |
| CCOC(=O)N1Cc2cc(Cl)ccc2-n2c(C3CC4(C3)CN(c3nccc(C(F)(F)F)n3)C4)nnc2C1C (stereo not shown) [compound 190] | < 100 |
| Cc1ccnc(N2CC3(CC(c4nnc5n4-c4ccc(Cl)cc4CN(C4CC4)C5)C3)C2)c1 [compound 217, 8-chloro-5-cyclopropyl-1-(2-(4-methylpyridin-2-yl)-2-azaspiro[3.3]heptan-6-yl)-5,6-dihydro-4H-benzo[f][1,2,4]triazolo[4,3-a][1,4]diazepine] | < 100 |
| Clc1ccc2c(c1)CN(C1CC1)Cc1nnc(C3CC4(C3)CN(c3cnccn3)C4)n1-2 [compound 219] | < 100 |
| Cc1cncc(N2CC3(CC(c4nnc5n4-c4ccc(Cl)cc4CN(C4CC4)C5)C3)C2)n1 [compound 221] | < 100 |
| Cc1nccnc1N1CC2(CC(c3nnc4n3-c3ccc(Cl)cc3CN(C3CC3)C4)C2)C1 [compound 222] | < 100 |
| Cc1ccc(N2CC3(CC(c4nnc5n4-c4ccc(Cl)cc4CN(C4CC4)C5)C3)C2)nc1 [compound 227] | < 100 |
| N#Cc1cccc(N2CC3(CC(c4nnc5n4-c4ccc(Cl)cc4CN(C4CC4)C5)C3)C2)n1 [compound 228] | < 100 |
| N#Cc1ccnc(N2CC3(CC(c4nnc5n4-c4ccc(Cl)cc4CN(C4CC4)C5)C3)C2)c1 [compound 232] | < 100 |
| Clc1ccc2c(c1)CN(C1CC1)Cc1nnc(C3CC4(C3)CN(c3ccncn3)C4)n1-2 [compound 233] | < 100 |
| Cc1cc(N2CC3(CC(c4nnc5n4-c4ccc(Cl)cc4CN(C4CC4)C5)C3)C2)ncc1F [compound 235] | < 100 |
| CN1Cc2cc(Cl)ccc2-n2c(nnc2C2CC3(C2)CN(c2ncc(F)cn2)C3)C1 [compound 236, 8-chloro-5-methyl-1-(2-(5-fluoropyrimidin-2-yl)-2-azaspiro[3.3]heptan-6-yl)-5,6-dihydro-4H-benzo[f][1,2,4]triazolo[4,3-a][1,4]diazepine] | < 100 |
| Cc1cncc(N2CC3(CC(c4nnc5n4-c4ccc(Cl)cc4CN(C)C5)C3)C2)n1 [compound 237] | < 100 |
| CN1Cc2cc(Cl)ccc2-n2c(nnc2C2CC3(C2)CN(c2ncncc2F)C3)C1 [compound 238] | < 100 |

| Structure (SMILES) | IC50 [nM] |
| --- | --- |
| Cc1nc(N2CC3(CC(c4nnc5n4-c4ccc(Cl)cc4CN(C)C5)C3)C2)ncc1F [compound 240] | < 100 |
| Cc1ccnc(N2CC3(CC(c4nnc5n4-c4ccc(Cl)cc4CN(C)C5)C3)C2)c1 [compound 241, 8-chloro-5-methyl-1-(2-(4-methylpyridin-2-yl)-2-azaspiro[3.3]heptan-6-yl)-5,6-dihydro-4H-benzo[f][1,2,4]triazolo[4,3-a][1,4]diazepine] | < 100 |
| Cc1nccnc1N1CC2(CC(c3nnc4n3-c3ccc(Cl)cc3CN(C3(C)CC3)C4)C2)C1 [compound 244] | < 100 |
| Cc1cc(N2CC3(CC(c4nnc5n4-c4ccc(Cl)cc4CN(C4(C)CC4)C5)C3)C2)ncc1F [compound 245] | < 100 |
| O=C(NC1CC1)N1Cc2cc(Cl)ccc2-n2c(nnc2C2CC3(C2)CN(c2ccc(F)cn2)C3)C1 [compound 246, 8-chloro-N-cyclopropyl-1-(2-(5-fluoropyridin-2-yl)-2-azaspiro[3.3]heptan-6-yl)-4H-benzo[f][1,2,4]triazolo[4,3-a][1,4]diazepine-5(6H)-carboxamide] | < 100 |
| Fc1cncnc1N1CC2(CC(c3nnc4n3-c3ccc(Cl)cc3CN(C3CC3)C4)C2)C1 [compound 247] | < 100 |
| N#Cc1ccnc(N2CC3(CC(c4nnc5n4-c4ccc(Cl)cc4CN(C4CC4)C5)C3)C2)n1 [compound 248] | < 100 |
| COc1cc(N2CC3(CC(c4nnc5n4-c4ccc(Cl)cc4CN(C4CC4)C5)C3)C2)ncc1F [compound 249] | < 100 |
| Cn1nc(N2CC3(CC(c4nnc5n4-c4ccc(Cl)cc4CN(C4CC4)C5)C3)C2)c2cccnc21 [compound 250] | < 100 |
| Cc1cc(N2CC3(CC(c4nnc5n4-c4ccc(Cl)cc4CN(C)C5)C3)C2)ncc1F [compound 252] | < 100 |
| CN1Cc2cc(Cl)ccc2-n2c(nnc2C2CC3(C2)CN(c2noc4ccccc24)C3)C1 [compound 256] | < 100 |
| CN1Cc2cc(Cl)ccc2-n2c(nnc2C2CC3(C2)CN(c2nc4cnccc4n2C)C3)C1 [compound 258] | > 1000 |
| Cc1nc(N2CC3(CC(c4nnc5n4-c4ccc(Cl)cc4CN(C4(C)CC4)C5)C3)C2)ccc1F [compound 260] | < 100 |
| CC1(N2Cc3cc(Cl)ccc3-n3c(nnc3C3CC4(C3)CN(c3ncc(F)cn3)C4)C2)CC1 [compound 261] | < 100 |
| CC1(N2Cc3cc(Cl)ccc3-n3c(nnc3C3CC4(C3)CN(c3cccc(C#N)n3)C4)C2)CC1 [compound 262] | < 100 |
| CC1(N2Cc3cc(Cl)ccc3-n3c(nnc3C3CC4(C3)CN(c3nccc(C#N)n3)C4)C2)CC1 [compound 263] | < 100 |
| CC1(N2Cc3cc(Cl)ccc3-n3c(nnc3C3CC4(C3)CN(c3ncccn3)C4)C2)CC1 [compound 264] | < 100 |
